Measured values taken from patent publication US20150080559A1, “Compositions Containing, Methods Involving, and Uses of Non-Natural Amino Acid Linked Dolastatin Derivatives” (priority 2011, published 2015).
Like-named read-outs stand apart in the source and are kept apart here.

Assays:
NCI-N87 = test: In vitro inhibition of proliferation assay (WST-8), NCI-N87; format: cell-based; settings: Data Set I, experiment Sep. 4, 2010; 72 hr; read-out: IC50 Values after 72 hr drug treatment, NCI-N87
Description: (§1) At day 1, the cells were seeded. The media was aspirated and the T-225 culture flasks of cells was rinsed with 30 mL PBS −/. PBS was aspirated and 6 mL of 0.25% Trypsin-EDTA was added to each flask. The flasks were incubated at 37C, 5% CO2 for 2-5 minutes. Adherent cells were dislodged by hitting flask and trypsin was neutralized by adding 14 mL culture medium. The cell suspension was mixed and transferred to a 50 mL conical tube. The cells were spun down at 1200 rpm, 5 min, room temperature. The resultant cell pellet was resuspended in 12 mL of culture medium. The cells were counted in a hemacytometer. Cells were seeded at appropriate cell densities into 96-well flat-bottom, clear plates and incubated overnight at 37° C., 5% CO2 to allow cells to attach. Plating volume was 80 uL/well. 80 uL/well of culture medium was utilized as the “no cell” control.
(§2) At day 2, the test samples were added to the cells. The test samples were diluted in culture medium to a 9× stock concentration in Column 2 of a round-bottom 96-well plate. 3× serial dilutions were made from Column 2 to Column 11 with a multi-channel pipettor. 10 uL/well of the above samples was added in duplicate to the appropriate wells of the seeded plate. The total volume in the wells was about 90 uL/well. […]
(§3) At day 5, proliferation readout occurred. […] The plates were measured for absorbance at OD 450 nm. […]

SKOV-3 = test: In vitro inhibition of proliferation assay (WST-8), SKOV-3; format: cell-based; settings: 72 hr, read-out: IC50 Values after 72 hr drug treatment, SKOV-3
Description: as §1
(§4) Cell plating density examples include: • BT474 (high Her2)—20,000 cells/well in F12k/DMEM (50/50), 10% FBS, P/S • MDA-MB-468 (Her2 negative)—6,000 cells/well in F12k/DMEM (50/50), 10% FBS, P/S • HCC1954—5,000 cells/well in RPMI 1640, 10% FBS, P/S • SKOV-3—6,000 cells/well in RPMI 1640, 10% FBS, P/S • HT29—20,000 cells/well in McCoy's 5A, 10% FBS, P/S
(§5) At day 2, the test samples were added to the cells. The test samples were diluted in culture medium to a 9× stock concentration in Column 2 of a round-bottom 96-well plate. 3× serial dilutions were made from Column 2 to Column 11 with a multi-channel pipettor. 10 uL/well of the above samples was added in duplicate to the appropriate wells of the seeded plate. The total volume in the wells was about 90 uL/well. 10 uL/well of culture medium was added to avoid edge effects for sample wells. Media Control wells were included in the inner wells where no sample was added (just 10 uL/well of culture medium) to be used in proliferation calculations. The plates were incubated at 37° C., 5% CO2 for 72 hrs.
as §3

ZR-75-30 = test: In vitro inhibition of proliferation assay (WST-8), ZR-75-30; format: cell-based; settings: Data Set I, experiment Sep. 4, 2010; 72 hr; read-out: IC50 Values after 72 hr drug treatment, ZR-75-30
Description: as §1, §2, §3

HCC1954 = test: In vitro inhibition of proliferation assay (WST-8), HCC1954; format: cell-based, human; settings: 72 hr, read-out: IC50 Values after 72 hr drug treatment, HCC1954
Description: as §1, §4
(§6) At day 2, the test samples were added to the cells. […]
as §3

HT29 = test: In vitro inhibition of proliferation assay (WST-8), HT29; format: cell-based; settings: Data Set II, experiment Sep. 24, 2010; 72 hr; read-out: IC50 Values after 72 hr drug treatment, HT29
Description: as §1, §4, §6, §3

BT474 = test: In vitro inhibition of proliferation assay (WST-8), BT474; format: cell-based; settings: 72 hr, read-out: IC50 Values after 72 hr drug treatment, BT474
Description: as §1, §4, §5, §3

LS513 = test: In vitro inhibition of proliferation assay (WST-8), LS513; format: cell-based; settings: Data Set I, experiment Sep. 4, 2010; 72 hr; read-out: IC50 Values after 72 hr drug treatment, LS513
Description: as §1, §2, §3

MDA-MB-175 = test: In vitro inhibition of proliferation assay (WST-8), MDA-MB-175; format: cell-based; settings: Data Set I, experiment Sep. 13, 2010
Description: as §1, §2, §3

MDA-MB-468 = test: In vitro inhibition of proliferation assay (WST-8), MDA-MB-468; format: cell-based; settings: Data Set II, experiment Oct. 8, 2010; 72 hr; read-out: IC50 Values after 72 hr drug treatment, MDA-MB-468
Description: as §1, §4, §6, §3

[1] = Data Set I, experiment Sep. 4, 2010
[2] = Data Set I, experiment Sep. 13, 2010
[3] = Data Set II, experiment Oct. 8, 2010

## Dolastatin
NCI-N87
  IC50: > 30000 pM
SKOV-3; [1]
  IC50: 200 pM
SKOV-3; [2]
  IC50: 100 pM
SKOV-3; [3]
  IC50: 200 pM
ZR-75-30
  IC50: > 30000 pM
HCC1954; [1]
  IC50: 60 pM
HCC1954; [3]
  IC50: 40 pM
HT29
  IC50: 4000 pM
BT474; [1]
  IC50: 100 pM
BT474; [2]
  IC50: 100 pM
BT474; Data Set II, experiment Sep. 24, 2010
  IC50: 2500 pM
LS513
  IC50: 200 pM
MDA-MB-175
  IC50 Values after 72 hr drug treatment, MDA-MB-175: no fit
MDA-MB-468
  IC50: < 10 pM
